According to ChEMBL document CHEMBL1123728, “Rational design of 4-[(methylsulfonyl)amino]benzamides as class III antiarrhythmic agents” (J Med Chem, 1987):
Calls of active or inactive are those of the source.

Experiments:
[1] = organism: Canis familiaris; assay: Concentration required for 20% increase in action potential duration of canine Purkinje fiber (intracellular electrophysiology) in vitro measured at 95% repolarization was reported. Range is between 0.03-2; format: functional, Canis lupus familiaris
[2] = organism: Canis familiaris; assay: Concentration required for 20% increase in the functional refractory period of canine ventricular muscle (extracellular electrophysiology) in vitro was reported;NR=at 10 uM the FRP was increased 13%; conditions: Canis lupus familiaris
[3] = test system: Canis familiaris; assay: Efficacy in blocking sustained ventricular tachycardia (rate>250 bpm) elicited by programmed electrical stimulation in conscious dogs after iv administration of dose 1 mg/kg; no. of successful exp / total no. of exp = 5/6; format: functional, Canis lupus familiaris, Cardiac ventricle
[4] = test system: Canis familiaris; assay: Efficacy in blocking sustained ventricular tachycardia (rate>250 bpm) elicited by programmed electrical stimulation in anesthetized dogs after iv administration of dose 0.3 mg/kg; no. of successful exp / total no. of exp = 7/10; format: functional, Canis lupus familiaris, Cardiac ventricle
[5] = organism: Canis familiaris; assay: Decrease in Vmax in isolated canine Purkinje fibers at 10 uM; format: functional, Canis lupus familiaris, Purkinje fiber
[6] = organism: Canis familiaris; assay: Concentration required for 20% increase in the functional refractory period of canine ventricular muscle (extracellular electrophysiology) in vitro was reported; NR means not reached; conditions: Canis lupus familiaris
[7] = organism: Canis familiaris; assay: Concentration required for 20% increase in action potential duration of canine Purkinje fiber (intracellular electrophysiology) in vitro measured at 95% repolarization was reported;NR means not reached; format: functional; conditions: Canis lupus familiaris
[8] = organism: Canis familiaris; assay: Concentration required for 20% increase in the functional refractory period of canine ventricular muscle (extracellular electrophysiology) in vitro was reported. Range is between 1.2-150; set-up: species or system Canis lupus familiaris
[9] = organism: Canis familiaris; assay: Concentration required for 20% increase in action potential duration of canine Purkinje fiber (intracellular electrophysiology) in vitro measured at 95% repolarization was reported. Range is between 0.2-0.5; format: functional, Canis lupus familiaris
[10] = organism: Canis familiaris; assay: Concentration required for 20% increase in action potential duration of canine Purkinje fiber (intracellular electrophysiology) in vitro measured at 95% repolarization was reported. Range is between 1.8-2.0; format: functional, Canis lupus familiaris
[11] = organism: Canis familiaris; assay: Concentration required for 20% increase in the functional refractory period of canine ventricular muscle (extracellular electrophysiology) in vitro was reported; set-up: species or system Canis lupus familiaris
[12] = test system: Canis familiaris; assay: Efficacy in blocking sustained ventricular tachycardia (rate>250 bpm) elicited by programmed electrical stimulation in conscious dogs after iv administration of 0.8 mg/kg; no. of successful exp / total no. of exp = 5/5; format: functional, Canis lupus familiaris, Cardiac ventricle
[13] = test system: Canis familiaris; assay: Efficacy in blocking sustained ventricular tachycardia (rate>250 bpm) elicited by programmed electrical stimulation in conscious dogs after iv administration of dose 0.5 mg/kg; no. of successful exp / total no. of exp = 4/4; format: functional, Canis lupus familiaris, Cardiac ventricle
[14] = test system: Canis familiaris; assay: Efficacy in blocking sustained ventricular tachycardia (rate>250 bpm) elicited by programmed electrical stimulation in anesthetized dogs after iv administration of 0.5 mg/kg; no. of successful exp / total no. of exp = 4/4; format: functional, Canis lupus familiaris, Cardiac ventricle
[15] = test system: Canis familiaris; assay: Efficacy in blocking sustained ventricular tachycardia (rate>250 bpm) elicited by programmed electrical stimulation in anesthetized dogs after iv administration of dose 1.0 mg/kg; no. of successful exp / total no. of exp = 3/4; format: functional, Canis lupus familiaris, Cardiac ventricle
[16] = organism: Canis familiaris; assay: Concentration required for 20% increase in the functional refractory period of canine ventricular muscle (extracellular electrophysiology) in vitro was reported;NR means not reached; conditions: Canis lupus familiaris
[17] = organism: Canis familiaris; assay: Concentration required for 20% increase in the functional refractory period of canine ventricular muscle (extracellular electrophysiology) in vitro was reported. Range is between 0.8-11; set-up: species or system Canis lupus familiaris
[18] = organism: Canis familiaris; assay: Concentration required for 20% increase in action potential duration of canine Purkinje fiber (intracellular electrophysiology) in vitro measured at 95% repolarization was reported. Range is between 0.08-5; format: functional, Canis lupus familiaris
[19] = organism: Canis familiaris; assay: Concentration required for 20% increase in action potential duration of canine Purkinje fiber (intracellular electrophysiology) in vitro measured at 95% repolarization was reported; NR means not reached; format: functional; conditions: Canis lupus familiaris
[20] = organism: Canis familiaris; assay: Concentration required for 20% increase in the functional refractory period of canine ventricular muscle (extracellular electrophysiology) in vitro was reported. Range is between 1.6-25; set-up: species or system Canis lupus familiaris
[21] = organism: Canis familiaris; assay: Concentration required for 20% increase in action potential duration of canine Purkinje fiber (intracellular electrophysiology) in vitro measured at 95% repolarization was reported. Range is between 1.0-34; format: functional, Canis lupus familiaris
[22] = test system: Canis familiaris; assay: Efficacy in blocking sustained ventricular tachycardia (rate>250 bpm) elicited by programmed electrical stimulation in anesthetized dogs after iv administration of dose 1.4 mg/kg; no. of successful exp / total no. of exp = 3/5; format: functional, Canis lupus familiaris, Cardiac ventricle
[23] = pKa1 was determined; format: physicochemical; conditions: read-out: pKa1
[24] = pKa2 was determined; format: physicochemical; conditions: read-out: pKa2
[25] = organism: Canis familiaris; assay: Concentration required for 20% increase in the functional refractory period of canine ventricular muscle (extracellular electrophysiology) in vitro was reported. Range is between 9-35; set-up: species or system Canis lupus familiaris
[26] = organism: Canis familiaris; assay: Concentration required for 20% increase in action potential duration of canine Purkinje fiber (intracellular electrophysiology) in vitro measured at 95% repolarization was reported. RAnge is between 2.0-11.4; format: functional, Canis lupus familiaris
[27] = test system: Canis familiaris; assay: Efficacy in blocking sustained ventricular tachycardia (rate>250 bpm) elicited by programmed electrical stimulation in conscious dogs. Administered orally at a dose of 2.5 mg/kg after iv administration; no. of successful exp / total no. of exp = 5 /6; format: functional, Canis lupus familiaris, Cardiac ventricle; conditions: route oral
[28] = Bioavailability after peroral administration (3 mg/kg) in dog was determined; Range 41-98%; format: ADME, organism-based, Canis lupus familiaris; conditions: in vivo, po, read-out: Bioavailabiility
[29] = test system: Canis familiaris; assay: Efficacy in blocking sustained ventricular tachycardia (rate>250 bpm) elicited by programmed electrical stimulation in 4 anesthetized dogs after iv administration of dose 1 mg/kg; no. of successful exp / total no. of exp = 4/4; format: functional, Canis lupus familiaris, Cardiac ventricle
[30] = test system: Mus musculus; assay: Acute toxicity after intraperitoneal administration in mouse was determined; range 250-300 mg/kg; format: functional; conditions: ip
[31] = Half life period was determined; conditions: dog
[32] = organism: Canis familiaris; assay: Concentration required for 20% increase in action potential duration of canine Purkinje fiber (intracellular electrophysiology) in vitro measured at 95% repolarization was reported. Range is between 0.2-5; format: functional, Canis lupus familiaris
[33] = organism: Canis familiaris; assay: Concentration required for 20% increase in the functional refractory period of canine ventricular muscle (extracellular electrophysiology) in vitro was reported, range is 0.3-1.1; set-up: species or system Canis lupus familiaris
[34] = test system: Canis familiaris; assay: Efficacy in blocking sustained ventricular tachycardia (rate>250 bpm) elicited by programmed electrical stimulation in anesthetized dogs after iv administration of dose 0.8 mg/kg; no. of successful exp / total no. of exp = 5/9; format: functional, Canis lupus familiaris, Cardiac ventricle
[35] = organism: Canis familiaris; assay: Concentration required for 20% increase in the functional refractory period of canine ventricular muscle (extracellular electrophysiology) in vitro was reported. Range is between 9-4000; set-up: species or system Canis lupus familiaris
[36] = organism: Canis familiaris; assay: Concentration required for 20% increase in action potential duration of canine Purkinje fiber (intracellular electrophysiology) in vitro measured at 95% repolarization was reported. Range is between 9-63; format: functional, Canis lupus familiaris
[37] = test system: Canis familiaris; assay: Efficacy in blocking sustained ventricular tachycardia (rate>250 bpm) elicited by programmed electrical stimulation in conscious dogs after iv administration of dose 3 mg/kg; no. of successful exp / total no. of exp = 4/4; format: functional, Canis lupus familiaris, Cardiac ventricle
[38] = test system: Canis familiaris; assay: Efficacy in blocking sustained ventricular tachycardia (rate>250 bpm) elicited by programmed electrical stimulation in anesthetized dogs after iv administration of dose 1 mg/kg; no. of successful exp / total no. of exp = 2/7; format: functional, Canis lupus familiaris, Cardiac ventricle
[39] = organism: Canis familiaris; assay: Concentration required for 20% increase in the functional refractory period of canine ventricular muscle (extracellular electrophysiology) in vitro was reported. Range is between 5.6-800; set-up: species or system Canis lupus familiaris
[40] = organism: Canis familiaris; assay: Concentration required for 20% increase in action potential duration of canine Purkinje fiber (intracellular electrophysiology) in vitro measured at 95% repolarization was reported. NR means 10% increase in APD95 (C10APD95) was observed at 30 um(22; format: functional; conditions: Canis lupus familiaris
[41] = test system: Canis familiaris; assay: Efficacy in blocking sustained ventricular tachycardia (rate>250 bpm) elicited by programmed electrical stimulation in anesthetized dogs after iv administration of dose 9 mg/kg; no. of successful exp / total no. of exp = 4/4; format: functional, Canis lupus familiaris, Cardiac ventricle
[42] = organism: Canis familiaris; assay: Concentration required for 20% increase in action potential duration of canine Purkinje fiber (intracellular electrophysiology) in vitro measured at 95% repolarization was reported. Range is between 0.01-0.03; format: functional, Canis lupus familiaris
[43] = organism: Canis familiaris; assay: Concentration required for 20% increase in the functional refractory period of canine ventricular muscle (extracellular electrophysiology) in vitro was reported. Range is between 0.05-3.7; set-up: species or system Canis lupus familiaris

SMILES: CCCCCCC[N+](CC)(CC)CCCCc1ccc(Cl)cc1 [CLOFILIUM]
- C20 APD95 [1]: 0.2 µM
- C20 FRP [2]: Partially active
- Efficacy [3]: 5
- Efficacy [4]: 7
- delta Vmax [5]: -18%

SMILES: CCN(CC)CCNC(=O)c1ccc(N(C)S(C)(=O)=O)cc1
- C20 FRP [6]: Not reached
- C20 APD95 [7]: Not reached

SMILES: CCN(CC)C1CCC(NC(=O)c2ccc(NS(C)(=O)=O)cc2)CC1.Cl (configuration not stated)
- C20 FRP [8]: 3 µM
- C20 APD95 [9]: 0.4 µM
- C20 APD95 [10]: 1.9 µM
- C20 FRP [11]: 40 µM
- Efficacy [12]: 5
- Efficacy [13]: 4
- Efficacy [14]: 4
- Efficacy [15]: 3

SMILES: CCNCCNC(=O)c1ccc(NS(C)(=O)=O)cc1
- C20 FRP [16]: Not reached
- C20 APD95 [7]: Not reached

SMILES: CCCCCCCNCCNC(=O)c1ccc(NS(C)(=O)=O)cc1.Cl
- C20 FRP [17]: 4 µM
- C20 APD95 [18]: 0.2 µM

SMILES: CCN(CC)CCNC(=O)c1ccc(NS(=O)(=O)CC)cc1
- C20 FRP [6]: Not reached
- C20 APD95 [19]: Not reached

SMILES: CCN(CC)CCCNC(=O)c1ccc(NS(C)(=O)=O)cc1
- C20 FRP [20]: 4 µM
- C20 APD95 [21]: 2 µM
- Efficacy [22]: 3

SMILES: CCN(CC)CCNC(=O)c1ccc(NS(C)(=O)=O)cc1.Cl [SEMATILIDE HYDROCHLORIDE]
- pKa [23]: 7.6
- pKa [24]: 9.51
- C20 FRP [25]: 17 µM
- C20 APD95 [26]: 3.5 µM
- Efficacy [27]: 5
- bioavailability [28]: 41%
- Efficacy [29]: 4
- LD50 [30]: 250 mg/kg
- half-life [31]: 162 min

SMILES: CCN(CC)CCNC(=O)c1ccc(NS(=O)(=O)C(F)(F)F)cc1
- C20 FRP [16]: Not reached
- C20 APD95 [7]: Not reached

SMILES: C=CCN(CCN(CC)CC)C(=O)c1ccc(NS(C)(=O)=O)cc1
- C20 APD95 [32]: 0.5 µM
- C20 FRP [33]: 0.5 µM
- Efficacy [34]: 5

SMILES: CC(C)NCC(O)c1ccc(NS(C)(=O)=O)cc1 (racemic) [SOTALOL]
- C20 FRP [35]: 52 µM
- C20 APD95 [36]: 22 µM
- Efficacy [37]: 4
- Efficacy [38]: 2

SMILES: CCN(CC)CCNC(=O)c1ccc(NC(C)=O)cc1 [ACECAINIDE]
- C20 FRP [39]: 60 µM
- C20 APD95 [40]: Partially active
- Efficacy [41]: 4

SMILES: CCCCCCCN(CC)CCNC(=O)c1ccc(NS(C)(=O)=O)cc1
- C20 APD95 [42]: 0.02 µM
- C20 FRP [43]: 0.5 µM
